In patent US7763615B2, “Ecteinascidin analogs for use as antitumour agents” (priority 2001, dated 2010):
Values after ≈ are worked out from the molar mass of the structure shown. Where two headings read alike, the source gives them in different places.

What was measured:
(HEPG2) = conditions: human, 24 h, 30 μM
Method: The toxic potential of compounds was investigated in vitro using primary human hepatocytes (HEPG2). The compounds were tested at 30 μM in duplicate with a final DMSO concentration of 1%. After incubation during 24 h at 37° C. the cell viability was determined by the conversion of oxided alarmarBlue (resazurin) to reduced alarmarBlue (resorufin). Chlorpromazine was used as reference compound. Results are expressed as a percent of inhibition of control values.

[1] = s9, 60 min, 1 μM
CYP3A4 = CYP3A4 (Homo sapiens, UniProt P08684); assay: in vitro; conditions: CYP3A4 (% inhibition)
[2] = tested on: AML-12, normal mouse liver cells; conditions: 24 h
[3] = tested on: NRK-52E, normal rat kidney cells; conditions: 24 h
[4] = tested on: FDC-P1, normal mouse myelogeous stem cells; conditions: 24 h
physchem [5] = conditions: pH 7.4, log D n-Octanol-Dulbecco's PBS pH 7.4
CYP2D6 = CYP2D6 (Homo sapiens, UniProt P10635); assay: in vitro; conditions: CYP2D6 (% inhibition)
Chain of CYP2D6 (P10635 whole entry): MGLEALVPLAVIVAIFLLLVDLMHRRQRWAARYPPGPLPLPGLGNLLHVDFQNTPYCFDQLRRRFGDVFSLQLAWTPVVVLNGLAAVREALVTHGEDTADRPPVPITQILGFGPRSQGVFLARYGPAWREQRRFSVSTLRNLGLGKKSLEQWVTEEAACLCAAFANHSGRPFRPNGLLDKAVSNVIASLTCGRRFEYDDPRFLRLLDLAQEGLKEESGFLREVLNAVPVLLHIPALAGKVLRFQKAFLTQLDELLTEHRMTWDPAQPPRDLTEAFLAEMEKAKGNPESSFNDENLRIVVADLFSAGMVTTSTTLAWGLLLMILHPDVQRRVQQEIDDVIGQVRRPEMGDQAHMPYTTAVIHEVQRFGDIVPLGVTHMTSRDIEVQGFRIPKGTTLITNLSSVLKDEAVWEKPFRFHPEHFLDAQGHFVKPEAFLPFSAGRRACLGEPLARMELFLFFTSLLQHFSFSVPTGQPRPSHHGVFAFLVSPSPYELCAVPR

[6] = tested on: H9c2 (2-1), normal rat cardiac muscle cells; conditions: 24 h
Method: (§2) In order to assess the cytotoxicity of the drugs to normal cells, we used 96 well plates plated at a density of 5000 cells per well (except for the FDC-P1 which were plated at 12,000 cells per well) with normal cell lines (ATCC, Table 1) maintained as per the directions of the ATCC: AML-12, normal mouse liver cells; NRK-52E, normal rat kidney cells; L8, normal rat skeletal muscle cells; FDC-P1, normal mouse myelogeous stem cells; and H9c2 (2-1), normal rat cardiac muscle cells. The cells in each plate were permitted to settle overnight before adding the test drug.
(§3) To each well (100 μl medium) 10 μl of drug in media was added at varying concentrations (1×10-10-0.01 mg/ml final concentration) and further incubated overnight at 37° C. with 5% CO2. After 24 h the following assays were performed. All experiments were repeated at least 3 times and were assayed in duplicate.
(§4) MTS assay (CellTiter 96 aqueous) was performed according to the manufacturer's (Promega) directions (for all cell types). Cell viability (mitochondrial activity) is determined via enzymatic conversion of the formazan substrate.

MEL-28 = assay: cells; format: cell-based
Procedure, shortened: (§1)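 Absorbance at 490 nm of sulphorhodamine B bound by TCA-fixed cells gives the growth readout after 48 h continuous exposure to test samples (10 to 10^−8 μg/ml). Cells were seeded at 5×10^3 per well in RPMI 1640/10% FBS and allowed 18 h to attach first.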

A549 = assay: cells; format: cell-based; conditions: for GI50: read-out: GI50
Procedure, shortened: as §1

MB231 = assay: cells; format: cell-based; conditions: Homo sapiens
Procedure, shortened: as §1

DU145 = assay: cells; format: cell-based
Procedure, shortened: as §1

MCF = assay: cells; format: cell-based; conditions: Homo sapiens
Procedure, shortened: as §1

A498 = assay: cells; format: cell-based; conditions: Homo sapiens
Procedure, shortened: as §1

HT29 = assay: cells; format: cell-based
Procedure, shortened: as §1

SW-620 = assay: cells; format: cell-based; conditions: Homo sapiens
Procedure, shortened: as §1

physchem [7] = conditions: pH 7.4, aqueous buffer, Solubility Dulbecco's PBS pH 7.4
[8] = tested on: L8, normal rat skeletal muscle cells; conditions: 24 h
Method: as §2, §3, §4

SK-OV3 = assay: Inhibition of cells growth by colorimetric assay (SRB), SK-OV3; format: cell-based
Procedure, shortened: as §1

LNCAP = assay: cells; format: cell-based
Procedure, shortened: as §1

LOVO = assay: cells; format: cell-based
Procedure, shortened: as §1

IGROV-ET = assay: cells; format: cell-based
Procedure, shortened: as §1

K562 = assay: cells; format: cell-based
Procedure, shortened: as §1

SK-BR3 = assay: cells; format: cell-based
Procedure, shortened: as §1

LOVO-DOX = assay: cells; format: cell-based
Procedure, shortened: as §1

IGROV = assay: cells; format: cell-based
Procedure, shortened: as §1

PANC-1 = assay: cells; format: cell-based
Procedure, shortened: as §1

H-MEC-1 = assay: Inhibition of cells growth by colorimetric assay (SRB), H-MEC-1; format: cell-based
Procedure, shortened: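 Readout: SRB OD490, triplicate wells. Setup: 5×10^3 cells/well, RPMI 1640 + 10% FBS, 37° C, 5% CO2; 18 h pre-attachment; 48 h sample exposure, 10 to 10^−8 μg/ml. Outputs GI, TGI (cytostatic), LC (cytotoxic).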

[9] = Homo sapiens, SK-MEL-28, 48 h, MEL-28, 48 hours exposure, SRB
[10] = Homo sapiens, DU-145, 48 h, DU145, 48 hours exposure, SRB
[11] = Homo sapiens, HT-29, 48 h, HT29, 48 hours exposure, SRB

Chain of CYP3A4 (P08684 whole entry): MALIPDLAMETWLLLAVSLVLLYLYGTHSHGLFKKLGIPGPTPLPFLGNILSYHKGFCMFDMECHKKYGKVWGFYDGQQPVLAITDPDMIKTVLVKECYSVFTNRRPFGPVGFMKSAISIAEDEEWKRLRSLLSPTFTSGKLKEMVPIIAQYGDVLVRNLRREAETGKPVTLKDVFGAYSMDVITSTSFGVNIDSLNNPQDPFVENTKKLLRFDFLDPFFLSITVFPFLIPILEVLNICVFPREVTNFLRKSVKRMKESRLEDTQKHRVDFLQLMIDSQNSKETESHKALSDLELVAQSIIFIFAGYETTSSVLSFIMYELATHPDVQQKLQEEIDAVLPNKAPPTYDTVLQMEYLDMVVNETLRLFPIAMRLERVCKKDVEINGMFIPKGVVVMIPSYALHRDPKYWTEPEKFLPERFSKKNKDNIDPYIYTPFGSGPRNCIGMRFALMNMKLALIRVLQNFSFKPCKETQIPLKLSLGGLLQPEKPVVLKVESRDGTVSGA

## COc1c(C)cc2c(c1O)[C@@H]1C3[C@@H]4SC[C@]5(NCCc6c5[nH]c5ccc(OCc7ccccc7)cc65)C(=O)COC[C@@H](c5c6c(c(C)c(OC(C)=O)c54)OCO6)N3[C@@H](O)[C@H](C2)N1C (stereo partly shown) [Compound 29]
(HEPG2)
  Cell Viability (% inhibition): 29 % inhibition
[1]
  Human Liver S9 Metabolic Stability (% remaining): 9 % remaining
CYP3A4
  inhibition at 30 min, 10 µM: 55%
[2]
  Liver: 1.59E−08
[3]
  Kidney: 1.94E−08
[4]
  Myelo: 1.79E−08
Physchem [5]
  logD at 60 min: > 4.9
CYP2D6
  inhibition at 450 min, 10 µM: 27%
[6]
  Heart: 7.22E−08
MEL-28; [9]
  GI50: 23.2 nM
  IC (TGI): 34.8 nM
MEL-28; Homo sapiens, SK-MEL-28, 48 h, read-out: LC50, MEL-28, 48 hours exposure, SRB
  CC50: 81.3 nM
A549; Homo sapiens, A549, 48 h, A549, 48 hours exposure, SRB
  GI50: 23.2 nM
A549; Homo sapiens, A549, 48 h, A549, 48 hours exposure, SRB, read-out: TGI
  IC (TGI): 34.8 nM
A549; Homo sapiens, A549, 48 h, read-out: LC50, A549, 48 hours exposure, SRB
  CC50: 92.9 nM
MB231; 48 h, read-out: LC50
  CC50: 116 nM
MB231; MB231, 48 hours exposure, SRB
  GI50: 23.2 nM
MB231; MB231, 48 hours exposure, SRB, read-out: TGI
  IC (TGI): 46.5 nM
DU145; [10]
  GI50: 23.2 nM
  IC (TGI): 34.8 nM
DU145; Homo sapiens, DU-145, 48 h, read-out: LC50, DU145, 48 hours exposure, SRB
  CC50: 92.9 nM
MCF; 48 h, read-out: LC50
  CC50: 116 nM
MCF; MCF, 48 hours exposure, SRB
  GI50: 23.2 nM
MCF; MCF, 48 hours exposure, SRB, read-out: TGI
  IC (TGI): 34.8 nM
A498; A498, 48 h, read-out: LC50
  CC50: 116 nM
A498; A498, 48 hours exposure, SRB
  GI50: 3.48 nM
  IC (TGI): 11.6 nM
HT29; [11]
  GI50: 23.2 nM
  IC (TGI): 69.7 nM
HT29; Homo sapiens, HT-29, 48 h, read-out: LC50, HT29, 48 hours exposure, SRB
  CC50: 105 nM
SW-620; SW-620, 48 h, read-out: LC50
  CC50: 105 nM
SW-620; SW-620, 48 hours exposure, SRB
  IC (TGI): 69.7 nM
SW-620; SW-620, 48 hours exposure, SRB, read-out: GI50
  GI50: 23.2 nM
Physchem [7]
  solubility: 1.59 µM (≈ 1.39 µg/mL)
[8]
  Skeletal: 3.29E−07

## C=COC(=O)Oc1c(OC)c(C)cc2c1[C@@H]1C3[C@@H]4SC[C@]5(NCCc6c5[nH]c5ccccc65)C(=O)COC[C@@H](c5c6c(c(C)c(OC(C)=O)c54)OCO6)N3[C@@H](O)[C@H](C2)N1C (stereo partly shown) [Compound 47]
(HEPG2)
  Cell Viability (% inhibition): 18 % inhibition
[1]
  Human Liver S9 Metabolic Stability (% remaining): 5 % remaining
SK-OV3; Homo sapiens, SK-OV-3, SK-OV3
  GI50: 8.98 nM
SK-OV3; Homo sapiens, SK-OV-3, read-out: LC50, SK-OV3
  CC50: ≥ 12100 nM
SK-OV3; SK-OV3
  TGI: 2.88E−07
CYP3A4
  inhibition at 30 min, 10 µM: 38%
[2]
  Liver: 3.04E−08
[3]
  Kidney: 3.15E−08
[4]
  Myelo: 6.76E−08
Physchem [5]
  logD at 60 min: > 5
CYP2D6
  inhibition at 450 min, 10 µM: 10%
[6]
  Heart: 7.36E−08
LNCAP; Homo sapiens, LNCaP
  GI50: 2.65 nM
LNCAP; Homo sapiens, LNCaP, read-out: LC50, LNCAP
  CC50: 9.76 nM
LNCAP; LNCAP
  TGI: 5.08E−09
MEL-28; Homo sapiens, SK-MEL-28, MEL-28
  GI50: 4.26 nM
MEL-28; Homo sapiens, SK-MEL-28, read-out: LC50, MEL-28
  CC50: 207 nM
MEL-28; MEL-28
  TGI: 1.00E−08
LOVO; Homo sapiens, LoVo
  GI50: 6.26 nM
LOVO; Homo sapiens, LoVo, read-out: LC50, LOVO
  CC50: ≥ 12100 nM
LOVO; LOVO
  TGI: 4.64E−08
IGROV-ET; Homo sapiens, IGROV-ET
  GI50: 69.7 nM
IGROV-ET; Homo sapiens, read-out: LC50, IGROV-ET
  CC50: ≥ 12100 nM
IGROV-ET; IGROV-ET
  TGI: 3.61E−06
K562; Homo sapiens, K562, K562
  GI50: 13.1 nM
K562; Homo sapiens, K562, read-out: LC50, K562
  CC50: 6320 nM
K562; K562
  TGI: 2.11E−06
SK-BR3; Homo sapiens, SK-BR-3, SK-BR3
  GI50: 7.56 nM
SK-BR3; Homo sapiens, SK-BR-3, read-out: LC50, SK-BR3
  CC50: 693 nM
SK-BR3; SK-BR3
  TGI: 3.47E−08
A549; A549
  TGI: 7.50E−08
A549; Homo sapiens, A549, A549
  GI50: 33.3 nM
A549; Homo sapiens, A549, read-out: LC50, A549
  CC50: 1330 nM
LOVO-DOX; Homo sapiens, LOVO-DOX
  GI50: 40.7 nM
LOVO-DOX; Homo sapiens, read-out: LC50, LOVO-DOX
  CC50: ≥ 12100 nM
LOVO-DOX; LOVO-DOX
  TGI: 1.17E−07
DU145; DU145
  TGI: 2.06E−08
DU145; Homo sapiens, DU-145, DU145
  GI50: 5.46 nM
DU145; Homo sapiens, DU-145, read-out: LC50, DU145
  CC50: ≥ 12100 nM
HT29; HT29
  TGI: 1.21E−05
HT29; Homo sapiens, HT-29, HT29
  GI50: 38.8 nM
HT29; Homo sapiens, HT-29, read-out: LC50, HT29
  CC50: ≥ 12100 nM
IGROV
  TGI: 4.07E−08
IGROV; Homo sapiens
  GI50: 10.6 nM
IGROV; Homo sapiens, read-out: LC50, IGROV
  CC50: 909 nM
PANC-1; Homo sapiens, PANC-1, PANC-1
  GI50: 42.4 nM
PANC-1; Homo sapiens, PANC-1, read-out: LC50, PANC-1
  CC50: ≥ 12100 nM
PANC-1; PANC-1
  TGI: 1.70E−06
Physchem [7]
  solubility: < 1 µM
H-MEC-1; H-MEC-1
  TGI: 1.50E−07
H-MEC-1; Homo sapiens, HMEC-1, H-MEC-1
  GI50: 6.78 nM
H-MEC-1; Homo sapiens, HMEC-1, read-out: LC50, H-MEC-1
  CC50: ≥ 12100 nM
[8]
  Skeletal: 2.57E−08
